Assay results as given in US20250092065A1, “2-(INDAZOL-5-YL)-6-(PIPERIDIN-4-YL)-1,7-NAPHTHYRIDINE DERIVATIVES AND RELATED COMPOUNDS AS MODULATORS FOR SPLICING NUCLEIC ACIDS AND FOR THE TREATMENT OF PROLIFERATIVE DISEASES” (REMIX THERAPEUTICS INC., priority 2022, published 2025).
Like-named read-outs stand apart in the source and are kept apart here.

How the values were obtained:
Assay type in all cases: cell-based, human
HTT mRNA = assay: RT-qPCR splicing assay, HTT mRNA canonical (CJ) and alternative (AJ) junction; details: Homo sapiens
Outline: (§1)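 A673 or K562 cells treated 24 h at 37 °C with 11-point 3-fold dilutions (top final 10 uM, DMSO ≤0.25%). Lysates analysed by one-step RT-qPCR for canonical (CJ) and alternative-exon (AJ) junctions, normalized to GAPDH, GUSB or PPIA. ΔΔCt vs DMSO, RQ = 2^(−ΔΔCt), expressed as percentage response.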

MYB mRNA = assay: RT-qPCR splicing assay, MYB mRNA canonical (CJ) and alternative (AJ) junction; details: Homo sapiens
Outline: as §1

MYB = assay: HiBiT protein abundance assay, MYB (K562 HiBiT knock-in); details: HiBiT knock-in K562 cells, 24 hours, top dose 10 μM
Outline: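 Steps: seed HiBiT knock-in K562 cells; add compound in 10-point 3-fold series from 10 μM final; incubate 24 h, 37 °C; add lytic HiBiT reagent, shake 5 min, wait 10 min; read luminescence. Normalize to parental K562 and DMSO controls, fit 4PL, take IC50.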

SMN2 mRNA = assay: RT-qPCR splicing assay, SMN2 mRNA; details: Homo sapiens, canonical junction qPCR panel, Table 4; read-out: SMN2 IC50 (decrease in CJ mRNA levels)
Outline: as §1

[1] = RT-qPCR, HTT alternative junction mRNA increase, read-out: HTT AJ (increase in alternative junction mRNA, AC50)
[2] = RT-qPCR, HTT canonical junction mRNA decrease, read-out: HTT CJ (decrease in canonical junction mRNA, IC50)
[3] = canonical junction qPCR panel, Table 4, read-out: HTT IC50 (decrease in CJ mRNA levels)
[4] = RT-qPCR, MYB alternative junction mRNA increase, read-out: MYB AJ (increase in alternative junction mRNA, AC50)
[5] = RT-qPCR, MYB canonical junction mRNA decrease, read-out: MYB CJ (decrease in canonical junction mRNA, IC50)
[6] = canonical junction qPCR panel, Table 4, read-out: MYB IC50 (decrease in CJ mRNA levels)
[7] = HTT alternative junction mRNA, RT-qPCR, read-out: HTT AJ (increase in AJ mRNA, AC50)
[8] = HTT canonical junction mRNA, RT-qPCR, read-out: HTT CJ (decrease in CJ mRNA levels, IC50)
[9] = MYB alternative junction mRNA, RT-qPCR, read-out: MYB AJ (increase in AJ mRNA, AC50)
[10] = MYB canonical junction mRNA, RT-qPCR, read-out: MYB CJ (decrease in CJ mRNA levels, IC50)

| SMILES | AC50 (HTT mRNA; [1]) [nM] | IC50 (HTT mRNA; [2]) [nM] | IC50 (HTT mRNA; [3]) [nM] | AC50 (MYB mRNA; [4]) [nM] | IC50 (MYB mRNA; [5]) [nM] | IC50 (MYB mRNA; [6]) [nM] | IC50 (MYB) [nM] | AC50 (HTT mRNA; [7]) [nM] | IC50 (HTT mRNA; [8]) [nM] | AC50 (MYB mRNA; [9]) [nM] | IC50 (MYB mRNA; [10]) [nM] | IC50 (SMN2 mRNA) [nM] |
| --- | --- | --- | --- | --- | --- | --- | --- | --- | --- | --- | --- | --- |
| C[C@H]1CN(c2cc(F)c3nc(-c4cc(F)c5nn(C)cc5c4)ccc3c2)C[C@H](C)N1 (single isomer, unassigned) [Compound 760] | 100 to 1000 | < 100 | < 100 | 100 to 1000 | < 100 | < 100 | < 100 |  |  |  |  |  |
| C[C@H]1CN(c2cc(F)c3nc(-c4cc5cn(C)nc5cc4O)ccc3c2)C[C@H](C)N1 (single isomer, unassigned) [Compound 770] | 100 to 1000 | 100 to 1000 | 100 to 1000 | < 100 | < 100 | < 100 | < 100 |  |  |  |  |  |
| Cc1cn2nc(-c3ccc4cc(N5C[C@H](C)N[C@@H](C)C5)cc(F)c4n3)cc(C)c2n1 (single isomer, unassigned) [Compound 799] | 100 to 1000 | 100 to 1000 | 100 to 1000 | 100 to 1000 | < 100 | < 100 | 100 to 1000 |  |  |  |  |  |
| Cc1c(O)c(-c2ccc3cc(N4C[C@H](C)N[C@@H](C)C4)cc(F)c3n2)cc2cn(C)nc12 (single isomer, unassigned) [Compound 800, 2,2,2-trifluoroacetate] | < 100 | < 100 | < 100 | < 100 | < 100 | < 100 | < 100 |  |  |  |  |  |
| Cc1nc(-c2cc3cn(C)nc3cc2O)nc2ccc(N3C[C@H](C)N[C@@H](C)C3)cc12 (single isomer, unassigned) [Compound 806] | 1000 to 10000 | > 10000 | > 10000 | 100 to 1000 | < 100 | < 100 | < 100 |  |  |  |  |  |
| Cc1nc(-c2cc3cn(C)nc3c(C)c2O)nc2ccc(N3C[C@H](C)N[C@@H](C)C3)cc12 (single isomer, unassigned) [Compound 807] | 1000 to 10000 | > 10000 | > 10000 | < 100 | < 100 | < 100 | < 100 |  |  |  |  |  |
| Cn1cc2cc(-c3cc4ccc(C5CCNCC5)nc4cn3)c(O)cc2n1 [Compound 104] |  |  | 1000 to 10000 |  |  | 1000 to 10000 | 1000 to 10000 | 1000 to 10000 | 1000 to 10000 | 1000 to 10000 | 1000 to 10000 | 100 to 1000 |
| Cn1cc2cc(-c3ccc4nc(N5CC[C@H](NC6CCC6)C5)ccc4n3)c(O)cc2n1 [Compound 156] |  |  | < 100 |  |  | < 100 | < 100 | < 100 | < 100 | < 100 | < 100 | < 100 |
| CC(C)N[C@H]1CCN(c2ccc3nc(-c4cc5cn(C)nc5cc4O)ccc3n2)C1 [Compound 171] |  |  | < 100 |  |  | < 100 | < 100 | < 100 | < 100 | < 100 | < 100 | < 100 |
| Cc1cn2nc(-c3ccc4nc(N5CCC(NC(C)(C)C)C5)ccc4n3)cc(C)c2n1 (centres unmarked) [Compound 186] |  |  | < 100 |  |  | 100 to 1000 | 100 to 1000 | < 100 | < 100 | < 100 | 100 to 1000 | < 100 |
